Read-outs that look alike come from different tables or passages of the source.
Experiments:
WI‐26 VA4 cells [1] = experiment: CellTiter‐Glo assay (cytotoxicity)
WI‐26 VA4 cells [2] = experiment: Collagen ELISA (secreted pro‐collagen I)
Procedure: WI‐26 VA4 cells were seeded at 3.5 × 10^4 cells/well on 24 well plates. After 24 h, the cells were starved of serum for 6 h. Then, the cells were incubated with the indicated concentrations of compounds in the presence of TGF‐β (2 ng/ml) (R&D systems, 240‐B‐002) for 72 h. The supernatant of the cells was collected and centrifuged at 500 g for 5 min to remove cell debris. Then, the level of pro‐collagen I in the supernatant was determined using Human Pro‐collagen I alpha 1 DuoSet ELISA (R&D systems, DY6220‐05) and DuoSet ELISA Ancillary Reagent Kit 2 (R&D systems, DY008) following the manufacturer's instructions.

[3] = log(inhibitor) vs. response, variable slope (four parameters), concentration in nM

`O=C(CC1NCCCC1O)Cn1cnc2cc(Br)c(Cl)cc2c1=O` (centres unmarked) [HF, Halofuginone, reference compound] gave an activity at 0.001 µM (WI‐26 VA4 cells [1]; Homo sapiens, WI26VA4, read-out: CellTiter-Glo % of control, 1 nM, Experiment #1, replicates) of 106%, an activity at 0.01 µM (WI‐26 VA4 cells [1]; Homo sapiens, WI26VA4, read-out: CellTiter-Glo % of control, 10 nM, Experiment #1, replicates) of 99.6% and an activity at 0.01 µM (WI‐26 VA4 cells [1]; Homo sapiens, WI26VA4, read-out: CellTiter-Glo % of control, 10 nM, Experiment #2, replicates) of 85.1%. It also gave an activity at 0.03 µM (WI‐26 VA4 cells [1]; Homo sapiens, WI26VA4, read-out: CellTiter-Glo % of control, 30 nM, Experiment #2, replicates) of 74.1%, an activity at 0.1 µM (WI‐26 VA4 cells [1]; Homo sapiens, WI26VA4, read-out: CellTiter-Glo % of control, 100 nM, Experiment #1, replicates) of 35.7% and an activity at 0.1 µM (WI‐26 VA4 cells [1]; Homo sapiens, WI26VA4, read-out: CellTiter-Glo % of control, 100 nM, Experiment #2, replicates) of 30%. The activity at 0.3 µM (WI‐26 VA4 cells [1]; Homo sapiens, WI26VA4, read-out: CellTiter-Glo % of control, 300 nM, Experiment #2, replicates) was 17.6%, the activity at 1 µM (WI‐26 VA4 cells [1]; Homo sapiens, WI26VA4, read-out: CellTiter-Glo % of control, 1000 nM, Experiment #1, replicates) was 17.1% and the activity at 1 µM (WI‐26 VA4 cells [1]; Homo sapiens, WI26VA4, read-out: CellTiter-Glo % of control, 1000 nM, Experiment #2, replicates) was 29.9%. For the same compound, the activity at 3 µM (WI‐26 VA4 cells [1]; Homo sapiens, WI26VA4, read-out: CellTiter-Glo % of control, 3000 nM, Experiment #2, replicates) was 11%, the activity at 10 µM (WI‐26 VA4 cells [1]; Homo sapiens, WI26VA4, read-out: CellTiter-Glo % of control, 10000 nM, Experiment #1, replicates) was 1.85% and the activity at 10 µM (WI‐26 VA4 cells [1]; Homo sapiens, WI26VA4, read-out: CellTiter-Glo % of control, 10000 nM, Experiment #2, replicates) was 4.64%. It also gave an activity at 30 µM (WI‐26 VA4 cells [1]; Homo sapiens, WI26VA4, read-out: CellTiter-Glo % of control, 30000 nM, Experiment #2, replicates) of 1.49%, an activity at 0.0003 µM (WI‐26 VA4 cells [1]; Homo sapiens, WI26VA4, read-out: CellTiter-Glo % of control, average, 0.3 nM, average) of 103% and an activity at 0.001 µM (WI‐26 VA4 cells [1]; Homo sapiens, WI26VA4, read-out: CellTiter-Glo % of control, average, 1 nM, average) of 102%. The activity at 0.01 µM (WI‐26 VA4 cells [1]; Homo sapiens, WI26VA4, read-out: CellTiter-Glo % of control, average, 10 nM, average) was 92.4%, the activity at 0.03 µM (WI‐26 VA4 cells [1]; Homo sapiens, WI26VA4, read-out: CellTiter-Glo % of control, average, 30 nM, average) was 77.3% and the activity at 0.1 µM (WI‐26 VA4 cells [1]; Homo sapiens, WI26VA4, read-out: CellTiter-Glo % of control, average, 100 nM, average) was 30.6%. For the same compound, the activity at 0.3 µM (WI‐26 VA4 cells [1]; Homo sapiens, WI26VA4, read-out: CellTiter-Glo % of control, average, 300 nM, average) was 18.1%, the activity at 1 µM (WI‐26 VA4 cells [1]; Homo sapiens, WI26VA4, read-out: CellTiter-Glo % of control, average, 1000 nM, average) was 23.7% and the activity at 3 µM (WI‐26 VA4 cells [1]; Homo sapiens, WI26VA4, read-out: CellTiter-Glo % of control, average, 3000 nM, average) was 10.2%. It also gave an activity at 10 µM (WI‐26 VA4 cells [1]; Homo sapiens, WI26VA4, read-out: CellTiter-Glo % of control, average, 10000 nM, average) of 3.39%, an activity at 30 µM (WI‐26 VA4 cells [1]; Homo sapiens, WI26VA4, read-out: CellTiter-Glo % of control, average, 30000 nM, average) of 1.53% and an activity at 100 µM (WI‐26 VA4 cells [1]; Homo sapiens, WI26VA4, read-out: CellTiter-Glo % of control, average, 100000 nM, average) of 0.00424%. For the same compound, the “CellTiter-Glo LogIC50 (best-fit value)” value (WI‐26 VA4 cells [1]; [3]) was 1.708, the IC50 (WI‐26 VA4 cells [2]; Homo sapiens, WI26VA4, 72 h, read-out: IC50 for collagen level, TGF‐β 2 ng/ml, 72 h (Fig 1B)) was 15.2 nM and the IC50 (WI‐26 VA4 cells [2]; Homo sapiens, WI26VA4, read-out: Collagen IC50 (best-fit value), log(inhibitor) vs. response, variable slope (four parameters) (converted)) was 15.2 nM. The activity at 1 µM (WI‐26 VA4 cells [2]; Homo sapiens, WI26VA4, read-out: Collagen, % of control (single replicates per experiment), 1000 nM) was 3.91%, the activity at 0.0003 µM (WI‐26 VA4 cells [2]; Homo sapiens, WI26VA4, read-out: Collagen, % of control, average, 0.3 nM, average) was 96.4% and the activity at 0.001 µM (WI‐26 VA4 cells [2]; Homo sapiens, WI26VA4, read-out: Collagen, % of control, average, 1 nM, average) was 103%. For the same compound, the activity at 0.003 µM (WI‐26 VA4 cells [2]; Homo sapiens, WI26VA4, read-out: Collagen, % of control, average, 3 nM, average) was 101%, the activity at 0.01 µM (WI‐26 VA4 cells [2]; Homo sapiens, WI26VA4, read-out: Collagen, % of control, average, 10 nM, average) was 71.9% and the activity at 0.03 µM (WI‐26 VA4 cells [2]; Homo sapiens, WI26VA4, read-out: Collagen, % of control, average, 30 nM, average) was 21.6%. For the same compound, the activity at 0.1 µM (WI‐26 VA4 cells [2]; Homo sapiens, WI26VA4, read-out: Collagen, % of control, average, 100 nM, average) was 3.57%, the activity at 0.3 µM (WI‐26 VA4 cells [2]; Homo sapiens, WI26VA4, read-out: Collagen, % of control, average, 300 nM, average) was 2.57% and the activity at 1 µM (WI‐26 VA4 cells [2]; Homo sapiens, WI26VA4, read-out: Collagen, % of control, average, 1000 nM, average) was 3.27%. It also gave an activity at 0.0003 µM (WI‐26 VA4 cells [2]; Homo sapiens, WI26VA4, read-out: Efficacy, % of control, average, 0.3 nM) of 104%, an activity at 0.001 µM (WI‐26 VA4 cells [2]; Homo sapiens, WI26VA4, read-out: Efficacy, % of control, average, 1 nM) of 104% and an activity at 0.003 µM (WI‐26 VA4 cells [2]; Homo sapiens, WI26VA4, read-out: Efficacy, % of control, average, 3 nM) of 108%. It also gave an activity at 0.01 µM (WI‐26 VA4 cells [2]; Homo sapiens, WI26VA4, read-out: Efficacy, % of control, average, 10 nM) of 73%, an activity at 0.03 µM (WI‐26 VA4 cells [2]; Homo sapiens, WI26VA4, read-out: Efficacy, % of control, average, 30 nM) of 24.9% and an activity at 0.1 µM (WI‐26 VA4 cells [2]; Homo sapiens, WI26VA4, read-out: Efficacy, % of control, average, 100 nM) of 3.73%. For the same compound, the activity at 0.3 µM (WI‐26 VA4 cells [2]; Homo sapiens, WI26VA4, read-out: Efficacy, % of control, average, 300 nM) was 2.78%, the activity at 1 µM (WI‐26 VA4 cells [2]; Homo sapiens, WI26VA4, read-out: Efficacy, % of control, average, 1000 nM) was 2.54% and the activity at 0.0003 µM (WI‐26 VA4 cells [2]; Homo sapiens, WI26VA4, read-out: Efficacy, % of control, single replicate, 0.3 nM) was 114%. For the same compound, the activity at 0.001 µM (WI‐26 VA4 cells [2]; Homo sapiens, WI26VA4, read-out: Efficacy, % of control, single replicate, 1 nM) was 112%, the activity at 1 µM (WI‐26 VA4 cells [2]; Homo sapiens, WI26VA4, read-out: Efficacy, % of control, single replicate, 1000 nM) was 2.31% and the “Collagen HillSlope (best-fit value)” value (WI‐26 VA4 cells [2]; log(inhibitor) vs. response, variable slope (four parameters)) was -2.183. For the same compound, the “Collagen LogIC50 (best-fit value)” value (WI‐26 VA4 cells [2]; [3]) was 1.183 and the IC50 (WI‐26 VA4 cells [2]; read-out: IC50 for collagen level, TGF‐β 2 ng/ml, 72 h (Fig 1B)) was 15 nM.

— paper PMC10331583, “Control of fibrosis with enhanced safety via asymmetric inhibition of prolyl‐tRNA synthetase 1” (EMBO Molecular Medicine, 2023)
